# Reference: patent US5554752A, “Spirovesamicols” (Regents of the University of Minnesota, priority 1995, dated 1996)
# Structures can show the parent of a compound that is named as a salt.
# Key:
# [1] = system: vesamicol receptor; conditions: literature, cited from earlier work
# [2] = molecular target: vesamicol receptor; test: Vesamicol receptor binding ([3H]vesamicol); conditions: for Ki: [3H]vesamicol approx. 5 nM, 24 h equilibration, racemates, read-out: Ki (Inhibitory potency of Spirovesamicols)
# [3] = system: α-adrenoceptor; conditions: at higher doses; cited from earlier work
# [4] = system: storage and release of neurotransmitter; conditions: literature; cited from earlier work
# [5] = system: cholinergic neurotransmission; conditions: Brittain et al, 1969; cited from earlier work
# [6] = system: cholinergic neurotransmission; test: Pharmacological Activity of Spirovesamicols in Male Wistar Rats (anticholinergic signs and lethality, intraperitoneal); assay type: in vivo, rat; conditions: i.p.
# Method: Rats and mice were injected intraperitoneally with solutions of the compounds in aqueous EtOH (or aqueous DMSO). […] LD20 lethal dose for 20% of animals tested; LD40, lethal dose for 40%; LD60, lethal dose for 60%; L100, lethal dose for all animals; NR, no visible pharmacologic reaction; S, sluggishness and reduced locomotor activity; +, mild symptoms of anticholinergic activity; ++, severe signs of anticholinergic activity.
# [7] = system: cholinergic neurotransmission; test: Pharmacological Activity of Spirovesamicols in Male Swiss Webster Mice (anticholinergic signs and lethality, intraperitoneal); assay type: in vivo, mouse; conditions: i.p.
# Method: In vivo anticholinergic activity was evaluated in Swiss Webster mice. Blockade of cholinergic neurotransmission (or anticholinergic activity) was manifested in a rapidly developing respiratory distress, spasms and paralysis. At lethal doses these symptoms were followed by death within 10-20 min. As evident in Tables 1 and 2, the representative compounds tested were lethal at doses as low as 10 umol/Kg.
# Rats and mice were injected intraperitoneally with solutions of the compounds in aqueous EtOH (or aqueous DMSO). […] At lethal doses, death generally occurred within 20 minutes following the injection. LD20 lethal dose for 20% of animals tested; LD40, lethal dose for 40%; LD60, lethal dose for 60%; L100, lethal dose for all animals; NR, no visible pharmacologic reaction; S, sluggishness and reduced locomotor activity; +, mild symptoms of anticholinergic activity; ++, severe signs of anticholinergic activity.
molecule,measurement,setting,value
Nc1cccc2c1C[C@@H](N1CCC(c3ccccc3)CC1)[C@H](O)C2 (relative stereo) [Compound 2b],"potency/activity relative to vesamicol, in words",[1],a potent VR ligand
"OC1CCN(Cc2ccccc2I)CC1N1CCC2(C=Cc3ccccc32)CC1 (centres unmarked) [Compound 11c, 1'-(4-Hydroxy1-(2-iodobenzyl)piperidin-3-yl)-spiro[1H-indene-1,4'-piperidine]dihydrochloride]",Ki,[2],0.798 ± 0.187 nM
"OC1CCCCC1N1CCC2(CCCc3ccccc32)CC1 (centres unmarked) [Compound 13a, 3,4-Dihydro-1'-(2-Hydroxycyclohex-1-yl)-spiro[naphthalene-1,4'-piperidine]hydrochloride]",Ki,[2],24.2 ± 5.71 nM
"OC1CCCCC1N1CCC(c2ccccc2)CC1 (centres unmarked) [Compound 1, 2-(4-phenylpiperidino)cyclohexanol]",Ki,[2],1 nM
same,α-adrenoceptor activity,[3],exhibits α-adrenoceptor activity at higher doses
same,effect on storage and release of neurotransmitter,[4],selectively inhibits the storage and release of neurotransmitter
same,effect on synthesis of neurotransmitter,[4],without directly affecting the synthesis of this neurotransmitter
same,effects in laboratory animals,[5],"induces respiratory paralysis, spasms and death"
OC1CCNCC1N1CCC(c2ccccc2)CC1 (centres unmarked) [trozamicol],"potency/activity relative to vesamicol, in words",[1],poor ligand for vesamicol receptor
"OC1CCN(Cc2cccc(I)c2)CC1N1CCC2(C=Cc3ccccc32)CC1 (centres unmarked) [Compound 11d, 1'-(4-Hydroxy1-(3-iodobenzyl)piperidin-3-yl)-spiro[1H-indene-1,4'-piperidine]dihydrochloride]",Ki,[2],0.264 ± 0.078 nM
"OC1CCCCC1N1CCC2(C=Cc3ccccc32)CC1 (centres unmarked) [Compound 11a, 1'-(2-Hydroxycylohex-1-yl)spiro[1H-indene-1,4'-piperidine]Hydrochloride]",Pharmacological Activity,[6]; 10 umol/Kg,+
same,Pharmacological Activity,[6]; 22.5 umol/Kg,++
same,Pharmacological Activity,[6]; 45 umol/Kg,LD100
same,Ki,[2],0.622 ± 0.082 nM
same,Pharmacological Activity,[7]; 12.5 umol/Kg,+
same,Pharmacological Activity,[7]; 25 umol/Kg,LD40 (lethal dose for 40%)
same,Pharmacological Activity,[7]; 50 umol/Kg,LD60 (lethal dose for 60%)
same,Pharmacological Activity,[7]; 100 umol/Kg,LD100
"OC1Cc2ccccc2CC1N1CCC2(C=Cc3ccc(Br)cc32)CC1 (centres unmarked) [Compound 17, 1'-(2-Hydroxy-1,2,3,4-tetrahydronaphth-3-yl)spiro[6-bromo-1H-indene-1,4'-piperidine]Hydrochloride]",Ki,[2],0.271 ± 0.056 nM
same,effect of bromine on potency,[2]; in words,slight reduction in potency
"OC1Cc2ccccc2CC1N1CCC2(C=Cc3cc(Br)ccc32)CC1 (centres unmarked) [Compound 16, 1'-(2-Hydroxy-1,2,3,4-tetrahydronaphth-3-yl)-spiro[5-bromo-1H-indene-1,4'-piperidine]Hydrochloride]",Ki,[2],1.4 ± 0.3 nM
"OC1CCN(Cc2cccc(I)c2)CC1N1CCC2(CCCc3ccccc32)CC1 (centres unmarked) [Compound 13d, 1'-(1-(3-Iodobenzyl)-4-hydroxypiperidin-3-yl)-3,4-dihydrospiro[naphthalene-1(2H),4'-piperidine]]",Pharmacological Activity,[6]; 50 umol/Kg,S
same,Pharmacological Activity,[6]; 125 umol/Kg,LD100
same,Ki,[2],0.082 ± 0.02 nM
same,"potency relative to vesamicol, in words",[2]; compared with vesamicol / (-)-vesamicol,at least ten times more potent than (-)-vesamicol
O[C@@H]1CCCC[C@H]1N1CCC(c2ccc(Cl)cc2)CC1 (relative stereo) [Compound 1b],"potency/activity relative to vesamicol, in words",[1],between two and eight times less potent than vesamicol
O=C1NCN(c2ccccc2)C12CCN([C@@H]1CCCC[C@H]1O)CC2 (relative stereo) [Compound 6b],"potency/activity relative to vesamicol, in words",[1],inactive
"OC1CCN(Cc2ccc(F)cc2)CC1N1CCC2(CCCc3ccccc32)CC1 (centres unmarked) [Compound 13f, 1'-(1-(4-fluorobenzyl)-4-hydroxypiperidin-3-yl)-3,4-dihydrospiro[naphthalene-1(2H),4'-piperidine]]",Ki,[2],2.6 ± 0.9 nM
"OC1CCN(Cc2ccccc2I)CC1N1CCC2(CCCc3ccccc32)CC1 (centres unmarked) [Compound 13c, 1'-(1-(2-Iodobenzyl)-4-hydroxypiperidin-3-yl)-3,4-dihydrospiro[naphthalene-1(2H),4'-piperidine]]",Ki,[2],5.8 ± 1.7 nM
"OC1Cc2ccccc2CC1N1CCC2(CC1)C(Br)=Cc1ccccc12 (centres unmarked) [Compound 14, 1'-(2-Hydroxy-1,2,3,4-tetrahydronaphth-3-yl)-spiro[2-bromo-1H-indene-1,4'-piperidine]Hydrochloride]",Pharmacological Activity,[6]; 12.5 umol/Kg,+
same,Pharmacological Activity,[6]; 25 umol/Kg,LD100
same,Pharmacological Activity,[6]; 50 umol/Kg,LD100
same,increase in potency on bromine substitution at C2,[2]; 11a vs 14,20 fold
same,Ki,[2],0.038 ± 0.006 nM
OC1CCN(Cc2cccc(I)c2)CC1N1CCC(c2ccccc2)CC1 (centres unmarked) [MIBT],"potency/activity relative to vesamicol, in words",[1],potent ligands
"OC1Cc2ccccc2CC1N1CCC2(C=Cc3c(Br)cccc32)CC1 (centres unmarked) [Compound 15, 1'-(2-Hydroxy-1,2,3,4-tetrahydronaphth-3-yl)-spiro[4-bromo-1H-indene-1,4'-piperidine]Hydrochloride]",Pharmacological Activity,[6]; 50 umol/Kg,+
same,Ki,[2],0.212 ± 0.063 nM
COc1ccc2c3c1OC1C(O)C=CC4C(C2)N([C@@H]2CCCC[C@H]2O)CCC341 (some centres unmarked) [Compound 7a],"potency/activity relative to vesamicol, in words",[1],inactive
"1'(4-Hydroxy-1-(2-fluorobenzyl)piperidin-3-yl)-spiro[1H-indene-1,4'-piperidine]dihydrochloride [Compound 11f]",Ki,[2],0.248 ± 0.025 nM
"OC1Cc2ccccc2CC1N1CCC2(CCCc3ccccc32)CC1 (centres unmarked) [Compound 13b, 3,4-Dihydro-1'-(2-hydroxy-1,2,3,4-tetrahydronaphth-3-yl)-spiro[naphthalene-1(2H), 4'-piperidine]hydrochloride]",Ki,[2],18.4 ± 14 nM
"OC1Cc2ccccc2CC1N1CCC2(C=Cc3ccccc32)CC1 (centres unmarked) [Compound 11b, 1'-(2-Hydroxy-1,2,3,4-tetrahydronaphth-3-yl)-spiro[1H-indene-1,4'-piperidine]Hydrochloride]",Pharmacological Activity,[6]; 1 umol/Kg,++
same,Pharmacological Activity,[6]; 5 umol/Kg,LD100
same,Pharmacological Activity,[6]; 10 umol/Kg,LD100
same,Pharmacological Activity,[6]; 20 umol/Kg,LD100
same,Ki,[2],0.121 ± 0.032 nM
same,Pharmacological Activity,[7]; 1.25 umol/Kg,+
same,Pharmacological Activity,[7]; 2.5 umol/Kg,LD20 (lethal dose for 20% of animals tested)
same,Pharmacological Activity,[7]; 5.0 umol/Kg,LD20 (lethal dose for 20% of animals tested)
same,Pharmacological Activity,[7]; 10 umol/Kg,LD40 (lethal dose for 40%)
same,Pharmacological Activity,[7]; 20 umol/Kg,LD60 (lethal dose for 60%)
same,Pharmacological Activity,[7]; 40 umol/Kg,LD100
OC(Cc1ccc(Br)cc1)CN1CCC(c2ccccc2)CC1 (centres unmarked) [Compound 2a],"potency/activity relative to vesamicol, in words",[1],equipotent with vesamicol
COc1ccc2c3c1OC1C(=O)CCC4C(C2)N([C@@H]2CCCC[C@H]2O)CCC314 (some centres unmarked) [Compound 7b],"potency/activity relative to vesamicol, in words",[1],inactive
"O[C@@H]1CCCC[C@H]1N1CCC(c2ccccc2)CC1 [(-)-vesamicol, reference compound]",Kd,"[2]; conditions of this assay, read-out: dissociation constant (kd)",1 nM
O=[N+]([O-])c1ccc(C2CCN([C@@H]3CCCC[C@H]3O)CC2)cc1 (relative stereo) [Compound 1c],"potency/activity relative to vesamicol, in words",[1],between two and eight times less potent than vesamicol
O[C@@H]1CCCC[C@H]1N1CCc2ccccc2C1 (relative stereo) [Compound 6a],loss of activity relative to vesamicol,[1]; less active than vesamicol,125 times
